Assay results as given in ChEMBL document CHEMBL5053493, “Design and synthesis of novel orally selective and type II pan-TRK inhibitors to overcome mutations by property-driven optimization” (Eur J Med Chem, 2021).
Values belong to the molecule of their own block, whether it stands above or below them.

How the values were obtained:
[1] = Inhibition of TRKA F589L mutant (unknown origin) in presence of [gamma-33P]ATP by hotspot kinase assay; parameters: species or system Homo sapiens
[2] = Inhibition of TRKC G623R mutant (unknown origin) in presence of [gamma-33P]ATP by hotspot kinase assay; parameters: species or system Homo sapiens
[3] = Inhibition of TRKC G696A mutant (unknown origin) in presence of [gamma-33P]ATP by hotspot kinase assay; parameters: species or system Homo sapiens
[4] = Inhibition of TRKC L686M mutant (unknown origin) in presence of [gamma-33P]ATP by hotspot kinase assay; parameters: species or system Homo sapiens
[5] = Inhibition of TRKA G595R/A608D double mutant (unknown origin) bin presence of [gamma-33P]ATP by hotspot kinase assay; parameters: species or system Homo sapiens
[6] = Inhibition of TRKA […]/G667C double mutant (unknown origin) in presence of [gamma-33P]ATP by hotspot kinase assay; parameters: species or system Homo sapiens
[7] = Inhibition of TRKA G595R/L657M double mutant(unknown origin) in presence of [gamma-33P]ATP by hotspot kinase assay; parameters: species or system Homo sapiens
[8] = Inhibition of TRKA L657M mutant (unknown origin) in presence of [gamma-33P]ATP by hotspot kinase assay; parameters: species or system Homo sapiens
KM12 = assay: Antiproliferative activity against human KM12 cells assessed as reduction in cell viability measured after 72 hrs by MTS assay
[9] = target: T1, High affinity nerve growth factor receptor (Homo sapiens, UniProt P04629)
T1 sequence (P04629 whole entry): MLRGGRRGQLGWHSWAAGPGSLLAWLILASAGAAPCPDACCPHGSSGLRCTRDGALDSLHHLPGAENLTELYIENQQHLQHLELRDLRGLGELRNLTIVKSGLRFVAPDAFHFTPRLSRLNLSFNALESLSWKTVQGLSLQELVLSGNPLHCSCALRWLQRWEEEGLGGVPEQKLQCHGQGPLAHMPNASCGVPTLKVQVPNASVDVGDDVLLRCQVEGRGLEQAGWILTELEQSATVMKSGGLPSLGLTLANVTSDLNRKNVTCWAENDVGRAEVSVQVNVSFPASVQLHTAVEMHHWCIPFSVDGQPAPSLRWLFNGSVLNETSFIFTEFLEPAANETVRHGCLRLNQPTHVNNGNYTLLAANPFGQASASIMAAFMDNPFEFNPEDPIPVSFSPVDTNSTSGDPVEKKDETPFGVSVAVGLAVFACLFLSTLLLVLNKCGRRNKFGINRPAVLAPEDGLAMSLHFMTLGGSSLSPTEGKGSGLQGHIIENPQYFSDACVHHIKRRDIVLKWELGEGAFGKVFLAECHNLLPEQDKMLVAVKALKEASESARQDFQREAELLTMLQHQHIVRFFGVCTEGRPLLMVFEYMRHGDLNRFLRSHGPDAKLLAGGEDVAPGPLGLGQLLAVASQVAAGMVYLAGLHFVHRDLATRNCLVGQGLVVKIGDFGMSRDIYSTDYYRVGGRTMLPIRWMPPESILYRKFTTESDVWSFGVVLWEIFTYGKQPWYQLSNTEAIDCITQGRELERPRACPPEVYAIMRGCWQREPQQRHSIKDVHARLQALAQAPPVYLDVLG

[10] = target: BDNF/NT-3 growth factors receptor (Homo sapiens, UniProt Q16620); assay: Inhibition of TRKB (unknown origin)
Chain of BDNF/NT-3 growth factors receptor (Q16620 whole entry): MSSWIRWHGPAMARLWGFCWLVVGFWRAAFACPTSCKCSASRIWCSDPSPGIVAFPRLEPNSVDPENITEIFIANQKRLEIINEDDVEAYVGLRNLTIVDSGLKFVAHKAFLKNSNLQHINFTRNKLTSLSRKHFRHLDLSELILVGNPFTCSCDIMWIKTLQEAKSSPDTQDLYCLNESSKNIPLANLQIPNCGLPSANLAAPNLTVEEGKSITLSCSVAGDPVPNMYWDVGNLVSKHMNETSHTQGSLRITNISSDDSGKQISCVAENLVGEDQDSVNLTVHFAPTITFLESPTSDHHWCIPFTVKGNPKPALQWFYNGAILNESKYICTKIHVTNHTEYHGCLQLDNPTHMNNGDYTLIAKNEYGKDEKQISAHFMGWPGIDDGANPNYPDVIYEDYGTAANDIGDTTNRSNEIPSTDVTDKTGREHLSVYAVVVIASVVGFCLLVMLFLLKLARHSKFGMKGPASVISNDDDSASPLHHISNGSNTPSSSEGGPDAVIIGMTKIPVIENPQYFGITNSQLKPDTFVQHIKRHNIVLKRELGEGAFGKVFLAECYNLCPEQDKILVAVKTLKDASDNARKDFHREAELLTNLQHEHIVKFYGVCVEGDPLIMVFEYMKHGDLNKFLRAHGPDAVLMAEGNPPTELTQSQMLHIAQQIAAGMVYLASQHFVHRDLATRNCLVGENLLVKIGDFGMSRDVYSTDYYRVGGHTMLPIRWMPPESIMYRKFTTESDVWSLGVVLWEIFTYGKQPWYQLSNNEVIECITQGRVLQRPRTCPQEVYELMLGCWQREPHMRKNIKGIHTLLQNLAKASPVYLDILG

[11] = target: NT-3 growth factor receptor (Homo sapiens, UniProt Q16288); assay: Inhibition of TRKC (unknown origin)
Chain of NT-3 growth factor receptor (Q16288 whole entry): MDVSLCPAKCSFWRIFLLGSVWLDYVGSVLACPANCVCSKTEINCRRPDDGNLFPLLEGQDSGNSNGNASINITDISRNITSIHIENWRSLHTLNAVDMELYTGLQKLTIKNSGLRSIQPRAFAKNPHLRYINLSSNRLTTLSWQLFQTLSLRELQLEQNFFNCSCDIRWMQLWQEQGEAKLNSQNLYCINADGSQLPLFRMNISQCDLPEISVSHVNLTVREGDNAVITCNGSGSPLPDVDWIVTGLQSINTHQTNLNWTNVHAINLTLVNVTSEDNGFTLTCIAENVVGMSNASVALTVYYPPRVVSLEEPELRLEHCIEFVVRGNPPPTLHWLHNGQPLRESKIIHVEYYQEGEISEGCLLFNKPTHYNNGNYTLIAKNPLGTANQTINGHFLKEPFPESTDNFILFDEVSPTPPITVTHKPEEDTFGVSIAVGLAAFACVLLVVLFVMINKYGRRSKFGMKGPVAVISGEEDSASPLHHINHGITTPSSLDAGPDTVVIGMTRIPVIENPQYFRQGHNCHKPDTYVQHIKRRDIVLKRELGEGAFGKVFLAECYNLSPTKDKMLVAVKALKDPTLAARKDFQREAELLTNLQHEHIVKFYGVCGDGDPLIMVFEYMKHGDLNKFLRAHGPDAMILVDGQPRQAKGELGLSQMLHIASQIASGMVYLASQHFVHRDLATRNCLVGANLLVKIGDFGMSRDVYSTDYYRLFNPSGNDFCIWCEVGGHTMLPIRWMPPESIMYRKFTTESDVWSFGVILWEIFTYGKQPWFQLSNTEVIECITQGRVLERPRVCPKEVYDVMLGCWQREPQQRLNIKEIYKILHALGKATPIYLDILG

Aurora kinase A = target: T2, Aurora kinase A (Homo sapiens, UniProt O14965); assay: biochemical
T2 sequence (O14965 whole entry): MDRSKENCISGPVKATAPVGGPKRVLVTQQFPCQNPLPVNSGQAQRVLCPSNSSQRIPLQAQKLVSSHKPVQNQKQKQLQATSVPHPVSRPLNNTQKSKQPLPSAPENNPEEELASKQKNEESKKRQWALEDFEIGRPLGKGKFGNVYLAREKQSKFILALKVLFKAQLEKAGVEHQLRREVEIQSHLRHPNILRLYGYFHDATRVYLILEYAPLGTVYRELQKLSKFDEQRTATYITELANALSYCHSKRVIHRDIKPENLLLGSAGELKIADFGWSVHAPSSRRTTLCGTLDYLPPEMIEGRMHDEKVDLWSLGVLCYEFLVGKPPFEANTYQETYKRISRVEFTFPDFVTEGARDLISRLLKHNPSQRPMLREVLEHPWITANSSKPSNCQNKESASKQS
Description: Inhibition of GST-tagged AURA Ser123 to 401 residues) (unknown origin) expressed in Sf9 insect cells using tetra-LLRASLG peptide as substrate incubated for 90 mins in presence of ATP

Aurora kinase B = Aurora kinase B (Homo sapiens, UniProt Q96GD4); assay: Inhibition of recombinant full length His-tagged human AURB expressed in baculovirus expression system using tetra-LLRASLG peptide as substrate incubated for 180 mins in presence of ATP; parameters: species or system Sf9
Chain of Aurora kinase B (Q96GD4 whole entry): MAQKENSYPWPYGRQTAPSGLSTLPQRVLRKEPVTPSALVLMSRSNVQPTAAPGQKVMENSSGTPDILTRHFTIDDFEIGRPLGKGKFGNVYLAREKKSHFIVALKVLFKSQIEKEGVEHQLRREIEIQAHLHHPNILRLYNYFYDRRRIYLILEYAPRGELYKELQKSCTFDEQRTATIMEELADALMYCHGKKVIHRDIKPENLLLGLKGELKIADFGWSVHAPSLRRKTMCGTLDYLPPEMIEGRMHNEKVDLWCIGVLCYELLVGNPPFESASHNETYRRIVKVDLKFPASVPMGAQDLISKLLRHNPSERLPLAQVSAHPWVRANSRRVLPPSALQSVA

[12] = target: T1, High affinity nerve growth factor receptor; remark: listed apart in the source
Description: Inhibition of wildtype human TRKA using poly (Glu,Tyr) 4:1 as substrate in presence of [gamma-33P]ATP by hotspot kinase assay

SMILES: O=C(Nc1cnn2ccc(N3CCC[C@H]3c3cc(F)ccc3F)nc12)N1CC[C@@H](O)C1
IC50 [1]: 52.1 nM | IC50 [2]: 209 nM | IC50 [3]: 3.28 nM | IC50 [4]: 150 nM | IC50 [5]: 80.2 nM | IC50 [6]: > 10000 nM | IC50 [7]: 2510 nM | IC50 [8]: 20.7 nM

SMILES: CN(C)CCCOc1ccc2c(NCCc3cnc(NC(=O)Nc4cccc(Cl)c4)s3)ncnc2c1
IC50 (KM12; Homo sapiens, KM12, 72 h): > 10000 nM | IC50 [9]: 36.8 nM | IC50 [10]: 1.78 nM | IC50 [11]: 0.21 nM | IC50 (Aurora kinase A): 5.6 nM

SMILES: CCOc1cc2c(NCCc3ccc(NC(=O)Nc4ccccc4)cc3)ncnc2cc1F
IC50 (KM12; km12): 324 nM | IC50 (Aurora kinase A): 65.6 nM

SMILES: CCOc1cc2ncnc(Nc3ccc(NC(=O)Nc4cccc(Cl)c4)cc3)c2cc1F
IC50 (Aurora kinase A): 156 nM

SMILES: COc1cc2ncnc(NCCc3ccc(NC(=O)Nc4ccccc4)cc3)c2cc1OC
IC50 (Aurora kinase A): 23 nM

SMILES: O=C(Nc1ccccc1)Nc1ccc(CCNc2ncnc3cc(F)c(F)cc23)cc1
IC50 (KM12; Homo sapiens, KM12, 72 h): 1520 nM

SMILES: CCOc1cc2ncnc(NCCc3ccc(NC(=O)Nc4cccc(C(F)(F)F)c4)cc3)c2cc1F
IC50 (Aurora kinase A): 63.2 nM

SMILES: CCOc1cc2ncnc(NCc3ccc(NC(=O)Nc4cccc(Cl)c4)cc3)c2cc1F
IC50 (KM12; Homo sapiens, KM12, 72 h): 1270 nM | IC50 (Aurora kinase A): 2 nM

SMILES: CCOc1cc2ncnc(NCCc3ccc(NC(=O)Nc4ccccc4)cc3)c2cc1F
IC50 (KM12; km12): 324 nM | IC50 [9]: > 9000 nM | IC50 (Aurora kinase A): 29.2 nM

SMILES: O=C(Nc1ccccc1)Nc1ccc(CCNc2ncnc3ccccc23)cc1
IC50 (Aurora kinase A): 140 nM

SMILES: CCOc1cc2ncnc(NCCc3ccc(NC(=O)Nc4ccc(F)c(Cl)c4)cc3)c2cc1F
IC50 (Aurora kinase A): 44 nM

SMILES: CCOc1cc2ncnc(NCc3ccc(NC(=O)Nc4ccccc4)cc3)c2cc1F
IC50 (KM12; Homo sapiens, KM12, 72 h): 2400 nM | IC50 (Aurora kinase A): 8 nM

More lines, main results first:

IC50 (Aurora kinase A): 338 nM
SMILES: CCOc1cc2ncnc(Nc3ccc(NC(=O)Nc4ccccc4)cc3)c2cc1F
IC50 (KM12; Homo sapiens, KM12, 72 h): 2020 nM

IC50 (Aurora kinase A): 108 nM
SMILES: CCOc1cc2c(NCCc3ccc(NC(=O)Nc4cccc(Cl)c4)cc3)ncnc2cc1F

IC50 (Aurora kinase B): 512 nM | IC50 (Aurora kinase A): 352 nM
SMILES: CCOc1cc2ncnc(NCCc3ccc(NC(=O)Nc4cc(Cl)ccc4OC)cc3)c2cc1F

IC50 (Aurora kinase A): 6 nM
SMILES: CCOc1cc2ncnc(NCCc3ccc(NC(=O)Nc4cccc(F)c4)cc3)c2cc1F

IC50 (Aurora kinase A): 26.9 nM
SMILES: CCOc1cc2ncnc(NCCc3ccc(NC(=O)Nc4cccc(Cl)c4)cc3)c2cc1F

IC50 (Aurora kinase B): 548 nM | IC50 (Aurora kinase A): 454 nM
SMILES: CCOc1cc2ncnc(NCCc3ccc(NC(=O)Nc4cc(C(F)(F)F)ccc4OC)cc3)c2cc1F

IC50 (Aurora kinase A): 349 nM
SMILES: CCOc1cc2ncnc(NCCc3ccc(NC(=O)Nc4ccc(Cl)c(C(F)(F)F)c4)cc3)c2cc1F

IC50 [12]: 72.3 nM
SMILES: COc1cc2nccc(Oc3ccc(NC(=O)C4(C(=O)Nc5ccc(F)cc5)CC4)cc3)c2cc1OC [CABOZANTINIB]

IC50 [12]: 2.97 nM
SMILES: COc1cc2c(Oc3ccc(NC(=O)C4(C(=O)Nc5ccc(F)cc5)CC4)cc3F)ccnc2cc1OCCCN1CCOCC1 [FORETINIB]
